Inhibition data for one compound are collected here from patent US8927571B2, “Pyrido[4,3-B]indoles and methods of use” (Medivation Technologies, Inc., priority 2009, dated 2015).

The target of the experiment is T1, human recombinant serotonin (5-Hydroxytryptamine) 5-HT2A receptor (Homo sapiens, UniProt P28223).
T1 construct: expressed in transfected cells; host or cells: Chinese hamster ovary (CHO-K1) cells
In words: Serotonin 5-HT2A radioligand binding assay ([3H]Ketanserin). The following applies: 0.5 nM [3H]Ketanserin, read-out: Percent Inhibition of ligand binding, Serotonin (1 μM) 5-HT2A. On the procedure: Compounds of the invention were incubated with 0.5 nM [^3H]Ketanserin for 60 min at 25° C. Non-specific binding was estimated in the presence of 1 μM Mianserin. Receptor proteins were filtered and washed, the filters were then counted to determine [^3H]Ketanserin specifically bound. Compounds were screened at 1 μM or lower, using 1% DMSO as vehicle. Biochemical assay results are presented as the percent inhibition of specific binding in Table 4.

T1 sequence (P28223 whole entry): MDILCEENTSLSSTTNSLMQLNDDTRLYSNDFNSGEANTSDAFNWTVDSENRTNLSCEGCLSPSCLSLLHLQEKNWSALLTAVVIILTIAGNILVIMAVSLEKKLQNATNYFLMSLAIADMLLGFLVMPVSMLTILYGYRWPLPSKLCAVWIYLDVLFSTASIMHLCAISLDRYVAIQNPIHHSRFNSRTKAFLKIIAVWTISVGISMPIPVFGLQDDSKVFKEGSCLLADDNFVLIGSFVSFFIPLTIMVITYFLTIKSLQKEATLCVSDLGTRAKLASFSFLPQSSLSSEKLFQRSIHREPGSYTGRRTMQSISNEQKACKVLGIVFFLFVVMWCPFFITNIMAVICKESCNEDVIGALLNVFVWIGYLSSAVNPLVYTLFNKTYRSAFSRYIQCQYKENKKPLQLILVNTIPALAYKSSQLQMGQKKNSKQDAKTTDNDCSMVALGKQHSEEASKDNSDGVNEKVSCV

The term inhibition denotes the drop in the measured response relative to a control, in per cent. Consider `Cc1ccc2c(c1)c1c(n2CC(O)(c2ccccc2)c2ccc(F)cc2)CCN(C)C1` (stereo not shown) [Compound 1, 2-(2,8-dimethyl-3,4-dihydro-1H-pyrido[4,3-b]indol-5(2H)-yl)-1-(4-fluorophenyl)-1-phenylethanol], for which the inhibition at 1 µM was 97%.
